# Test results published in patent US9340559B2, “Proteasome inhibitor delanzomib for use in the treatment of lupus” (Cephalon, Inc., priority 2011, dated 2016).
# Key:
# Format in all cases: in vivo, mouse
# MRL/lpr mice [1] = assay: Splenomegaly (spleen mass), MRL/lpr mice
# Description: FIG. 5 depicts splenomegaly for MRL/lpr mice across treatment groups for the study duration. MRL/lpr mice were treated as outlined in the legend. The spleen masses for all mice that survived until the end of the experiment are graphed. Each symbol represents the spleen weight for one mouse at 25 weeks of age.
# Mice are tracked on an individual basis.
# Vehicle alone is provided orally twice weekly (p.o.). Both proteasome inhibitors are suspended in the vehicle solution. […] In addition, urine proteinuria is determined for all animals.
# Vehicle was 3% DMSO/10% Solutol/87% PBS.
# MRL/lpr mice [2] = assay: Renal histopathology scoring (kidney IC-GN), MRL/lpr mice
# Description: (§1) For histological analyses, the left kidney from each animal is removed and fixed in 10% buffered neutral 10% formalin (EMD) for 48 hours on an orbital rocker at 25° C., then washed overnight with running dH2O and stored in 70% ethanol at 4° C. until ready to be processed. Kidney stains used for histological analyses included hematoxylin and eosin (H&E), Periodic Acid Schiff (PAS) and Trichrome stains (Wistar Institute, Philadelphia, Pa.). All 3 stained sections are used by the pathologist for scoring purposes. All histological scoring is performed blinded and by an independent board certified veterinary medical pathologist (Julie Engiles, VMD, DACVP). Multiple stains are used to determine score values. Images in FIG. 17 show worst affected area of section selected blindly by the pathologist.
# (§2) Kidney IC-GN Scoring Method (Smith, Dong et al. 2007):
# (§3) 1. Glomerular cellularity—Score 1-5: Null, low, moderate, high, severe
# (§4) 2. Glomerular necrosis—Score 1-5: Null, low, moderate, high, severe
# (§5) 3. Glomerulosclerosis—Score 1-5: Null, low, moderate, high, severe
# (§6) 4. Interstitial infiltration—Score 1-5: Null, low, moderate, high, severe
# (§7) 5. Tubular atrophy—Score 1-5: Null, low, moderate, high, severe
# (§8) 6. Interstitial fibrosis—Score 1-5: Null, low, moderate, high, severe
# (§9) 7. Vasculitis—Score 1-5: Null, low, moderate, high, severe
# (§10) Specific Pathologist Definitions: • Necrosis is defined by the presence of nuclear debris/pyknosis within the glomerular tuft indicative of “necrosis.” In many samples, this is a very mild, rare finding within only a very few segments of the glomerular tuft. Also consider effacement of the glomerular tuft by PAS positive, Trichrome negative material necrosis. • Glomerular sclerosis is defined by increased fibroplasia or fibrosis within the glomerular tuft or capsule. […] Most of the vascular changes are mild and could be considered “arteriosclerosis” characterized by proliferation of the smooth muscle cells, and hyalinization of the extracellular matrix. This change may reflect hypertension secondary to glomerular pathology. In very few animals is there overt “vasculitis.” Most inflammatory changes are within the walls of the blood vessels, with little to no damage to the endothelium, and no overt hemorrhage/fibrin leakage. Many also have perivascular rims of fibroblasts.
# NZM mice [3] = assay: Body weight progression, NZM mice (Example 2)
# NZM mice [4] = assay: Antinuclear antibody (ANA) ELISA (anti-chromatin, anti-Smith Ag, anti-dsDNA), serum of NZM mice (Example 2)
# NZM mice [5] = assay: Collagen type-I cross-linker (CTx) bone resorption biomarker ELISA, serum of NZM mice
# Description: Assay is performed as instructed by the manufacturer. Briefly, biotinylated ratlaps antigen is first added in each well of a 96-well ELISA plate. This plate is covered and incubated for 30 minutes at RT. Plate is washed five times with washing solution and incubated with standards or unknown samples in appropriate wells followed by primary Ab. Incubate overnight for 18 hours at 4° C. followed by washing with buffer. Secondary incubation includes a peroxidase conjugated goat anti-rabbit IgG added to each well and incubation at RT for 1 hour. Incubation with chromogenic substrate solution for 15 minutes at RT in the dark develops the plate for analysis. Stopping solution halts the reaction, absorbance is measured within 2 hours at 450 nm.
# NZM mice [6] = assay: Renal histopathology scoring (kidney IC-GN), NZM mice (Example 2)
# Description: as §1, with “neutral” for “neutral 10%”, “39” for “17”
# as §2, §3, §4, §5, §6, §7, §8, §9, §10
structure (smiles),measurement,setting,value
"CC(C)C[C@H](NC(=O)[C@H](Cc1ccccc1)NC(=O)c1cnccn1)B(O)O [bortezomib, reference compound]","EOS spleen mass, percent change vs vehicle","MRL/lpr mice [1]; G4: 0.5 mg/kg iv, 1× wk",−68%
same,"EOS spleen mass, percent change vs vehicle","MRL/lpr mice [1]; G5: 0.3 mg/kg iv, 2× wk",−44%
same,"EOS glomerular cellularity, percent change vs vehicle","MRL/lpr mice [2]; G4: 0.5 mg/kg iv, 1× wk",−31%
same,"EOS glomerular necrosis, percent change vs vehicle","MRL/lpr mice [2]; G4: 0.5 mg/kg iv, 1× wk",−28%
same,"EOS glomerulosclerosis, percent change vs vehicle","MRL/lpr mice [2]; G4: 0.5 mg/kg iv, 1× wk",−42%
same,"EOS interstitial infiltration, percent change vs vehicle","MRL/lpr mice [2]; G4: 0.5 mg/kg iv, 1× wk",−47%
same,"EOS vasculitis, percent change vs vehicle","MRL/lpr mice [2]; G4: 0.5 mg/kg iv, 1× wk",−42%
same,"Kidney EOS interstitial fibrosis, percent change vs vehicle","MRL/lpr mice [2]; G4: 0.5 mg/kg iv, 1× wk",−46%
same,"Kidney EOS tubular atrophy, percent change vs vehicle","MRL/lpr mice [2]; G4: 0.5 mg/kg iv, 1× wk",−50%
same,"EOS glomerular cellularity, percent change vs vehicle","MRL/lpr mice [2]; G5: 0.3 mg/kg iv, 2× wk",−15%
same,"EOS glomerular necrosis, percent change vs vehicle","MRL/lpr mice [2]; G5: 0.3 mg/kg iv, 2× wk",−25%
same,"EOS glomerulosclerosis, percent change vs vehicle","MRL/lpr mice [2]; G5: 0.3 mg/kg iv, 2× wk",−18%
same,"EOS interstitial infiltration, percent change vs vehicle","MRL/lpr mice [2]; G5: 0.3 mg/kg iv, 2× wk",−39%
same,"EOS vasculitis, percent change vs vehicle","MRL/lpr mice [2]; G5: 0.3 mg/kg iv, 2× wk",−21%
same,"Kidney EOS interstitial fibrosis, percent change vs vehicle","MRL/lpr mice [2]; G5: 0.3 mg/kg iv, 2× wk",−27%
same,"Kidney EOS tubular atrophy, percent change vs vehicle","MRL/lpr mice [2]; G5: 0.3 mg/kg iv, 2× wk",−27%
same,maximum reduction of renal interstitial infiltration vs vehicle,MRL/lpr mice [2]; bortezomib groups,47%
same,decrease in average renal pathology score vs vehicle,MRL/lpr mice [2]; treated weekly with bortezomib,1.68 fold
same,"Body mass AUC, percent change vs vehicle","NZM mice [3]; G3 0.3 mg/kg ip, 1× wk",+13%
same,"Body mass AUC, percent change vs vehicle","NZM mice [3]; G4 0.3 mg/kg ip, 2× wk",+11%
same,"ANA Smith Ag AUC, percent change vs vehicle","NZM mice [4]; G3 0.3 mg/kg ip, 1× wk",−22%
same,"ANA chromatin AUC, percent change vs vehicle","NZM mice [4]; G3 0.3 mg/kg ip, 1× wk",113%
same,"ANA dsDNA AUC, percent change vs vehicle","NZM mice [4]; G3 0.3 mg/kg ip, 1× wk",95%
same,"ANA Smith Ag AUC, percent change vs vehicle","NZM mice [4]; G4 0.3 mg/kg ip, 2× wk",−53%
same,"ANA chromatin AUC, percent change vs vehicle","NZM mice [4]; G4 0.3 mg/kg ip, 2× wk",−22%
same,"ANA dsDNA AUC, percent change vs vehicle","NZM mice [4]; G4 0.3 mg/kg ip, 2× wk",−2%
same,"reduction in anti-chromatin Ab relative to vehicle, significance","NZM mice [4]; bortezomib, Dex or CTX treatment groups",none of which was significant
same,serum anti-dsDNA Ab increase vs vehicle,NZM mice [4]; once weekly bortezomib,95%
same,serum anti-Smith Ag Ab decrease vs vehicle,NZM mice [4]; once weekly bortezomib (0.3 mg/kg ip),22%
same,serum anti-dsDNA Ab decrease vs vehicle,NZM mice [4]; twice weekly bortezomib,2%
same,serum anti-chromatin Ab decrease vs vehicle,NZM mice [4]; twice weekly bortezomib (0.3 mg/kg ip),22%
same,"Serum CTx linker AUC, percent change vs vehicle","NZM mice [5]; G3 0.3 mg/kg ip, 1× wk",−27%
same,"Serum CTx linker AUC, percent change vs vehicle","NZM mice [5]; G4 0.3 mg/kg ip, 2× wk",−35%
same,serum CTx levels compared to vehicle,NZM mice [5]; treatment groups,no change in CTx levels
same,"Kidney glomerular cellularity, percent change vs vehicle","NZM mice [6]; G3 0.3 mg/kg ip, 1× wk",−12%
same,"Kidney glomerular necrosis, percent change vs vehicle","NZM mice [6]; G3 0.3 mg/kg ip, 1× wk",18%
same,"Kidney glomerulosclerosis, percent change vs vehicle","NZM mice [6]; G3 0.3 mg/kg ip, 1× wk",8%
same,"Kidney interstitial fibrosis, percent change vs vehicle","NZM mice [6]; G3 0.3 mg/kg ip, 1× wk",−5%
same,"Kidney interstitial infiltration, percent change vs vehicle","NZM mice [6]; G3 0.3 mg/kg ip, 1× wk",−15%
same,"Kidney tubular atrophy, percent change vs vehicle","NZM mice [6]; G3 0.3 mg/kg ip, 1× wk",−6%
same,"Kidney vasculitis, percent change vs vehicle","NZM mice [6]; G3 0.3 mg/kg ip, 1× wk",−21%
same,"p, interstitial infiltration (II) vs G7 Vehicle",NZM mice [6]; G4 0.3 mg/kg 2× wk,p < 0.05
same,"Kidney glomerular cellularity, percent change vs vehicle","NZM mice [6]; G4 0.3 mg/kg ip, 2× wk",−21%
same,"Kidney glomerular necrosis, percent change vs vehicle","NZM mice [6]; G4 0.3 mg/kg ip, 2× wk",3%
same,"Kidney glomerulosclerosis, percent change vs vehicle","NZM mice [6]; G4 0.3 mg/kg ip, 2× wk",−29%
same,"Kidney interstitial fibrosis, percent change vs vehicle","NZM mice [6]; G4 0.3 mg/kg ip, 2× wk",−22%
same,"Kidney interstitial infiltration, percent change vs vehicle","NZM mice [6]; G4 0.3 mg/kg ip, 2× wk",−44%
same,"Kidney tubular atrophy, percent change vs vehicle","NZM mice [6]; G4 0.3 mg/kg ip, 2× wk",−32%
same,"Kidney vasculitis, percent change vs vehicle","NZM mice [6]; G4 0.3 mg/kg ip, 2× wk",−14%
same,interstitial infiltration reduction vs vehicle,NZM mice [6]; bortezomib treatment group (twice weekly dose),44%
same,decrease in renal histopathology score over several parameters vs vehicle,"NZM mice [6]; mouse, in vivo",6-14%
